Data set [1] deals with aldose-reductase. Also on record: method as in PMID 22036211. The conditions noted are these: cited from earlier work.
In data set [2] the target is T1, α-glucosidase (Saccharomyces cerevisiae, UniProt P53341).
T1 construct: purchased Sigma-Aldrich, Munich, Germany
The experiment in a line: biochemical. The settings on record: read-out: Inhibitions (%). It counts as biochemical. How it is done: In vitro analysis of all the synthesized compounds was performed in order to justify the validity of in silico outcomes. Results were found in good agreement with the in silico study. […] A general spectrophotometric technique was used to perform the α-glucosidase inhibition assay with slight modifications. […] The experiment was repeated thrice and inhibition percentages were calculated using the following formula. % Inhibition = [(A control − A sample) / A control] × 100(1) where ‘A’ stands for absorbance.

The subject of data set [3] is SARS-CoV-2. Also on record: method as in PMID 33160024. The settings on record: cited from earlier work.
The test system of data set [4] is human 11β-HSD1. Also on record: method as in PMID 21212546. The conditions noted are these: cited from earlier work.

Here are results for five compounds from article PMC8161055, “Synthesis and α-Glucosidase Inhibition Activity of 2-[3-(Benzoyl/4-bromobenzoyl)-4-hydroxy-1,1-dioxido-2H-benzo[e][1,2]thiazin-2-yl]-N-arylacetamides: An In Silico and Biochemical Approach” (Molecules, 2021).

T1 sequence (P53341 whole entry): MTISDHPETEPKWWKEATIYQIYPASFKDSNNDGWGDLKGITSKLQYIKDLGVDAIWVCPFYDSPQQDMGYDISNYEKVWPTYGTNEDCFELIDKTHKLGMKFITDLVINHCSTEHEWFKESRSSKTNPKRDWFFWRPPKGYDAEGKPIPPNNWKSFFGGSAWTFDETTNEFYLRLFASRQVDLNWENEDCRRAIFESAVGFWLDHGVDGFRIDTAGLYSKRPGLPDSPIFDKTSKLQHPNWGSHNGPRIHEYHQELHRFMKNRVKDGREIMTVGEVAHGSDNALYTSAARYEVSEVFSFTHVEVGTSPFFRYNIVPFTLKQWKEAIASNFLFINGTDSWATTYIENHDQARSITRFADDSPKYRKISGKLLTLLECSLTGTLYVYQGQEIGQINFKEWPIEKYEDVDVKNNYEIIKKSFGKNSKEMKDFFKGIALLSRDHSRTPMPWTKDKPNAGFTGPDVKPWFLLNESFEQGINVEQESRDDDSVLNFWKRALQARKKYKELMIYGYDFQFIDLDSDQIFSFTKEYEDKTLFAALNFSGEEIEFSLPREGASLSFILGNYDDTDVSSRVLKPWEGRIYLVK

The IC50 is the midpoint of a concentration-inhibition curve. Regarding `O=C(O)C=C1CN(Cc2ccc(Br)cc2F)S(=O)(=O)c2ccccc21` [2-(2-(4-bromo-2-fluorobenzyl)-1,1-dioxido-2H-benzo[e][1,2]thiazin-4(3H)-ylidene)acetic acid], the IC50 in data set [1] was 110 nM.

Usually melting point stands for the temperature, or range, at which the solid turns liquid. For the compound `O=C(CN1C(C(=O)c2ccc(Br)cc2)=C(O)c2ccccc2S1(=O)=O)Nc1ccc(Br)cc1` [Compound 12k, 2-(3-(4-Bromobenzoyl)-4-hydroxy-1,1-dioxido-2H-benzo[e][1,2]thiazin-2-yl)-N-(4-bromophenyl)acetamide], the melting point fell in the range of 200 to 203 °C. The inhibition at 200 µM in data set [2] is 48%.

Compound `COc1ccccc1NC(=O)CN1C(C(=O)c2ccc(Br)cc2)=C(O)c2ccccc2S1(=O)=O` [Compound 12l, 2-(3-(4-Bromobenzoyl)-4-hydroxy-1,1-dioxido-2H-benzo[e][1,2]thiazin-2-yl)-N-(2-methoxyphenyl)acetamide] registered a melting point of 186 to 187 °C. Further, the inhibition at 200 µM in data set [2] worked out at 34%.

On to `O=C(CN1C(C(=O)Nc2ccc(F)c(Cl)c2)=C(O)c2ccc(F)cc2S1(=O)=O)Nc1ccc(C(F)(F)F)cc1` [compound 4], for which the IC50 in data set [3] was 880 nM.

`O=C(CN1C(C(=O)Nc2ccccc2)=C(O)c2ccccc2S1(=O)=O)Nc1cccc(C(F)(F)F)c1` [derivative 3]: in data set [4], the IC50 is 41 nM.
